Source: patent publication US20240216357A1 (SICHUAN HUIYU PHARMACEUTICAL CO., LTD., priority 2021, published 2024)
Counter-ions that a name gives are not always drawn. Like-named read-outs stand apart in the source and are kept apart here.

Legend:
LSD1 = LSD1 (Homo sapiens (Human), UniProt O60341); test: LSD1 enzyme activity detection (HTRF); assay type: biochemical; settings: read-out: Inhibition of enzymatic activity of LSD1 IC50
NCI-H1417 cells = test: In vitro cell proliferation detection (CellTiter-Glo, 7 days); assay type: cell-based; settings: Homo sapiens, 168 h; NCI-H1417 cells, 7 days, CellTiter-Glo; read-out: NCI-H1417 proliferation inhibition IC50

Row | SMILES | IC50 (LSD1; HTRF, H3K4me1 substrate) [µM] | IC50 (NCI-H1417 cells) [µM] | IC50 (LSD1) [µM]
1 | Cc1noc2cc(-c3c(O)cc(N4C5CCC4CC(N)C5)nc3-c3ccc(C#N)c(F)c3)c(F)cc12 (stereo not shown) [Example 24, 4-(6-(3-amino-8-azabicyclo[3.2.1]octane-8-yl)-3-(5-fluoro-3-methylbenzo[d]isoxazol-6-yl)-4-hydroxypyridin-2-yl)-2-fluorobenzonitrile] | 0.0215 ± 0.0205 | 0.252 | –
2 | CC(C)(O)C#Cc1ccc(-c2c(O)cc(N3CCC(N)CC3)nc2-c2ccc(C#N)c(F)c2)cc1F [Example 25, 4-(6-(4-aminopiperidin-1-yl)-3-(3-fluoro-4-(3-hydroxy-3-methyl-1-alkynyl-1-yl)phenyl)-4-hydroxypyridin-2-yl)-2-fluorobenzonitrile hydrochloride] | 0.0717 | 0.868 | –
3 | COc1ccc(C#Cc2c(O)cc(N3CCC(N)CC3)nc2-c2ccc(C#N)c(F)c2)cc1F [Example 27] | 0.0775 | 0.446 | –
4 | N#Cc1ccc(-c2nc(N3CCC(N)CC3)cc(O)c2-c2ccc(OC(F)(F)F)c(O)c2)cc1F [Example 29, 4-(6-(4-aminopiperidin-1-yl)-4-hydroxy-3-(3-hydroxy-4-(trifluoromethoxy)phenyl)pyridin-2-yl)-2-fluorobenzonitrile hydrochloride] | 0.00338 | 0.0118 | –
5 | COc1ccc(-c2c(O)cc(N3CCC[C@@H](N)C3)nc2-c2ccc(C#N)c(F)c2)cc1F [Example 31, (R)-4-(6-(3-aminopiperidin-1-yl)-3-(3-fluoro-4-methoxyphenyl)-4-hydroxypyridin-2-yl)-2-fluorobenzonitrile hydrochloride] | 0.051 | 0.0772 | –
6 | CC(C)(O)Cc1ccc(-c2c(O)cc(N3CCC(N)CC3)nc2-c2ccc(C#N)c(F)c2)c(F)c1 [Example 32, 4-(6-(4-aminopiperidin-1-yl)-3-(2-fluoro-4-(2-hydroxy-2-methylpropyl)phenyl)-4-hydroxypyridin-2-yl)-2-fluorobenzonitrile hydrochloride] | 0.0488 | 0.262 | –
7 | COc1ccc(-c2c(O)cc(N3CCC(N)CC3)nc2-c2ccc(C#N)c(F)c2)c(F)c1F [Example 35, 4-(6-(4-aminopiperidin-1-yl)-3-(2,3-difluoro-4-methoxyphenyl)-4-hydroxypyridin-2-yl)-2-fluorobenzonitrile] | 0.0357 | 0.0318 | –
8 | COc1ccc(-c2c(O)cc(N3CCC(N)CC3)nc2-c2ccc(C#N)c(F)c2)c(F)c1 [Example 36, 4-(6-(4-aminopiperidin-1-yl)-3-(2-fluoro-4-methoxyphenyl)-4-hydroxypyridin-2-yl)-2-fluorobenzonitrile hydrochloride] | 0.0352 | 0.0212 | –
9 | COc1ccc(-c2c(O)cc(N3C4CCC3CC(N)C4)nc2-c2ccc(C#N)c(F)c2)cc1O (stereo not shown) [Example 37, 4-(6-(3-amino-8-azabicyclo[3.2.1]octane-8-yl)-4-hydroxy-3-(3-hydroxy-4-methoxyphenyl)pyridin-2-yl)-2-fluorobenzonitrile] | 0.0151 | 0.173 | –
10 | CC(C)(O)COc1ccc(-c2c(O)cc(N3CCC(N)CC3)nc2-c2ccc(C#N)c(F)c2)cc1F [Example 38, 4-(6-(4-aminopiperine-1-yl)-3-(3-fluoro-4-(2-hydroxy-2-methylpropoxy)phenyl)-4-hydroxypyridin-2-yl)-2-fluorobenzonitrile hydrochloride] | 0.0576 | 0.179 | –
11 | CC(C)(O)Cc1ccc(-c2c(O)cc(N3CCC(N)CC3)nc2-c2ccc(C#N)c(F)c2)cc1F [Example 39, 4-(6-(4-aminopiperidin-1-yl)-3-(3-fluoro-4-(2-hydroxy-2-methylpropyl)phenyl)-4-hydroxypyridin-2-yl)-2-fluorobenzonitrile hydrochloride] | 0.0215 ± 0.0076 | 0.121 | –
12 | COc1ccc(-c2c(O)cc(N3CCC(N)CC3)nc2-c2ccc(C#N)c(F)c2)cc1N [Example 44] | 0.0128 ± 0.0046 | 0.0289 | –
13 | COc1ccc(-c2c(O)cc(N3CCC(NCC(C)(C)O)CC3)nc2-c2ccc(C#N)c(F)c2)cc1F [Example 45, 2-fluoro-4-(3-(3-fluoro-4-methoxyphenyl)-4-hydroxy-6-(4-((2-hydroxy-2-methylpropyl)amino)piperidin-1-yl)pyridin-2-yl)benzonitrile hydrochloride] | 0.184 | 0.161 | –
14 | N#Cc1ccc(-c2nc(N3CCC(N)CC3)cc(O)c2-c2cc(O)c(F)c(F)c2)cc1F [Example 46, 4-(6-(4-aminopiperidin-1-yl)-3-(3,4-difluoro-5-hydroxyphenyl)-4-hydroxypyridin-2-yl)-2-fluorobenzonitrile] | 0.002 ± 0.0014 | 0.0964 | –
15 | COc1ccc(-c2c(O)cc(N3CCC(N)CC3)nc2-c2ccc(C#N)c(F)c2)cc1C#N [Example 47, 4-(6-(4-aminopiperidin-1-yl)-3-(3-cyano-4-methoxyphenyl)-4-hydroxypyridin-2-yl)-2-fluorobenzonitrile] | 0.0026 ± 0.0013 | 0.106 | –
16 | N#Cc1ccc(-c2nc(N3CCC(N)CC3)cc(O)c2-c2ccc(C#N)c(F)c2)cc1F [Example 48, 4,4′-(6-(4-aminopiperidin-1-yl)-4-hydroxypyridine-2,3-diyl)bis(2-fluorobenzonitrile)] | 0.0578 | 0.29 | –

Row | SMILES | IC50 (LSD1; HTRF, H3K4me1 substrate) [µM] | IC50 (NCI-H1417 cells) [µM] | IC50 (LSD1) [µM]
17 | COCCNC1CCN(c2cc(O)c(-c3ccc(OC)c(F)c3)c(-c3ccc(C#N)c(F)c3)n2)CC1 [Example 49, 2-fluoro-4-(3-(3-fluoro-4-methoxyphenyl)-4-hydroxy-6-(4-((2-methoxyethyl)amino)piperidin-1-yl)pyridin-2-yl)benzonitrile] | 0.0614 | 0.228 | –
18 | COc1ccc(-c2c(O)cc(N3CC[C@@H](N)[C@H](OC)C3)nc2-c2ccc(C#N)c(F)c2)cc1F [Example 51, 4-(6-((3R,4R)-4-amino-3-methoxypiperidin-1-yl)-3-(3-fluoro-4-methoxyphenyl)-4-hydroxypyridin-2-yl)-2-fluorobenzonitrile] | 0.064 ± 0.02 | 0.0882 | –
19 | COc1ccc(-c2c(O)cc(N3CC4CNCC4C3)nc2-c2ccc(C#N)c(F)c2)cc1F (stereo not shown) [Example 52, 2-fluoro-4-(3-(3-fluoro-4-methoxyphenyl)-6-(hexahydropyrrolo[3,4-c]pyrrole-2(1H)-yl)-4-hydroxypyridin-2-yl)benzonitrile hydrochloride] | – | 0.167 | 0.1
20 | CNC1CCN(c2cc(O)c(-c3ccc(OC)c(F)c3)c(-c3ccc(C#N)c(F)c3)n2)CC1 [Example 55, 2-fluoro-4-(3-(3-fluoro-4-methoxyphenyl)-4-hydroxy-6-(4-(methylamino)piperidin-1-yl)pyridin-2-yl)benzonitrile] | 0.0023 ± 0.0007 | 0.01 ± 0.0029 | –
21 | COc1ccc(-c2c(O)cc(N3CCC(N(C)C)CC3)nc2-c2ccc(C#N)c(F)c2)cc1F [Example 56, 4-(6-(4-(dimethylamino)piperidin-1-yl)-3-(3-fluoro-4-methoxyphenyl)-4-hydroxypyridin-2-yl)-2-fluorobenzonitrile] | 0.0029 ± 0.0012 | 0.00488 | –
22 | N#Cc1ccc(-c2nc(N3CCC(N)CC3)cc(O)c2-c2ccc(F)c(O)c2)cc1F [Example 58, 4-(6-(4-aminopiperidin-1-yl)-3-(4-fluoro-3-hydroxyphenyl)-4-hydroxypyridin-2-yl)-2-fluorobenzonitrile] | 0.0013 ± 0.0004 | 0.00726 | –
23 | N#Cc1ccc(-c2nc(N3CCC(N)CC3)cc(O)c2-c2ccc(Cl)c(O)c2)cc1F [Example 59, 4-(6-(4-aminopiperidin-1-yl)-3-(4-chloro-3-hydroxyphenyl)-4-hydroxypyridin-2-yl)-2-fluorobenzonitrile] | 0.0007 ± 0.0003 | 0.00235 | –
24 | Cc1ccc(-c2c(O)cc(N3CCC(N)CC3)nc2-c2ccc(C#N)c(F)c2)cc1O [Example 60] | 0.0004 ± 0.0002 | 0.00049 | –
25 | CN(CCCN)c1cc(O)c(-c2ccc(Cl)c(O)c2)c(-c2ccc(C#N)c(F)c2)n1 [Example 61, 4-(6-((3-aminopropyl)(methyl)amino)-3-(4-chloro-3-hydroxyphenyl)-4-hydroxypyridin-2-yl)-2-fluorobenzonitrile] | 0.0265 | 0.387 | –
26 | COc1ccc(-c2c(O)cc(N(C)CCCN)nc2-c2ccc(C#N)c(F)c2)cc1O [Example 62] | 0.021 | 0.224 | –
27 | Cc1ccc(-c2c(O)cc(N(C)CCCN)nc2-c2ccc(C#N)c(F)c2)cc1O [Example 63, 4-(6-((3-aminopropyl)(methyl)amino)-4-hydroxy-3-(3-hydroxy-4-methylphenyl)pyridin-2-yl)-2-fluorobenzonitrile hydrochloride] | 0.0051 ± 0.0004 | 0.192 | –
28 | Cc1ccc(-c2c(-c3ccc(C#N)c(F)c3)nc(N3CCC(N)CC3)c(C)c2O)cc1O [Example 65, 4-(6-(4-aminopiperidin-1-yl)-4-hydroxy-3-(3-hydroxy-4-methylphenyl)-5-methylpyridin-2-yl)-2-fluorobenzonitrile hydrochloride] | 0.0007 ± 0.0004 | 0.00095 | –
29 | Cc1ccc(-c2cnc(N3CCC(N)CC3)c(C#N)c2-c2ccc(C#N)c(F)c2)cc1O [Example 67, 2-(4-aminopiperidin-1-yl)-4-(4-cyano-3-fluorophenyl)-5-(3-hydroxy-4-methylphenyl) nicotinonitrile hydrochloride] | 0.0002 ± 0.0001 | 0.0002 | –
30 | COc1ccc(-c2cnc(N3CCC(N)CC3)c(C#N)c2-c2ccc(C#N)c(F)c2)cc1F [Example 68, 2-(4-aminopiperidin-1-yl)-4-(4-cyano-3-fluorophenyl)-5-(3-fluoro-4-methoxyphenyl) nicotinonitrile hydrochloride] | 0.0034 ± 0.0013 | 0.00692 | –
31 | COc1ccc(-c2cnc(N3CCC(N)CC3)c(C#N)c2-c2ccc(C#N)c(F)c2)cc1 [Example 69, 2-(4-aminopiperidin-1-yl)-4-(4-cyano-3-fluorophenyl)-5-(4-methoxyphenyl) nicotinonitrile hydrochloride] | 0.0039 ± 0.0027 | 0.00841 | –
32 | Cc1ccc(-c2cnc(N3CCC(N)CC3)c(C#N)c2-c2ccc(C#N)c(F)c2)cc1F [Example 72, 2-(4-aminopiperidin-1-yl)-4-(4-cyano-3-fluorophenyl)-5-(3-fluoro-4-methylphenyl) nicotinitrile] | 0.0066 ± 0.001 | 0.0122 | –
